Patent publication US20210277399A1, “Methods of Imaging and Tracking Nucleic Acids in Cells” (Emory University, priority 2020, published 2021)

What was measured:
[1] = test system: Neuro-2a cells; test: Live cell imaging of mRNA in stress granules; type: cell-based, Mouse
Description: Experiments were performed to determine whether the MGD2/MGA system would be suitable for live cell imaging of endogenous mRNA localization and dynamics. Moreover, experiments were performed to determine whether one could simultaneously track the real-time localization properties of both RNA and proteins within a living cell. For this assay, Neuro-2a cells were co-transfected with expression plasmids for 1×MGA-mCDK6 and dual GFP-tagged G3BP1 protein. The expressed mRNA was labeled with MGD2 and photo crosslinked. The cells were then imaged to record the spatiotemporal features of both mRNA and protein in stress granules. […] Monitoring the signal intensity, the fluorescent signal generated from the MGD2 labeled granules was observed and remained consistent over >25 min of imaging.
After observing the motility and maturation of the granules, experiments were performed to determine whether one could also observe their dissolution. In mammalian cells, stress granules disassemble in the presence of small aliphatic molecules that disrupt weak hydrophobic interactions. Therefore, 1,6-hexanediol, an aliphatic alcohol commonly used for disassembly of stress granules was added. After arsenite-induced stress granule formation, the cells were incubated in 5% 1,6-hexanediol solution. The fluorescence signal of the labeled 1×MGA-mCDK6 was observed. […]

[2] = test system: Neuro-2a cells; test: Fixed-cell imaging of MGA-functionalized mCDK6 in stress granules; type: cell-based, Mouse
Source text: Fixed cell experiments enable direct comparisons to FISH and validate labeling of the target RNA in cells. As a biological context for testing the labeling method, stress granules were selected. In response to stress conditions, cells form non-membrane-bound cytosolic […] RNA-protein assemblies to stall the translation of mRNA until the cells are no longer under stress. While most mRNAs can be concentrated to stress granules, different mRNAs have vastly distinct localization efficiencies. Using FISH, experiments indicate that the CDK6 mRNA is highly enriched in stress granules of mammalian cells CDK6 was used as a model system to fluorescently label and image the unique distribution pattern of the mRNA. Both the 6× and 1×MGA sequences were inserted at the 5′ end of the transcript, and the construct was placed under the control of the cytomegalovirus (CMV) promoter (FIG. 2A). Mouse neuroblastoma Neuro-2a cells were then transfected with these plasmids and incubated with 30 μM MGD2 for 20 min. The cells were then irradiated using 365 nm UV light to allow for covalent labeling of the aptamer. The media was replaced to washout excess dye, and cell stress conditions were induced by 45 min of arsenite exposure, a well characterized paradigm to induce formation of stress granules. Following fixation and immunofluorescence labeling of the stress granule marker protein (G3BP1), the cells were imaged using confocal microscopy.
To validate that the fluorescence signal observed was arising from labeling of the target CDK6 mRNA, the Neuro-2a cells were simultaneously incubated with FISH probes complementary to the CDK6 sequence but bearing a spectrally orthogonal fluorophore. This experiment also enabled us to directly compare the sensitivity of the MGA/MGD2 system to the commonly used FISH technique for RNA labeling in fixed cells. Following arsenite stress, MGD2 labeling, and cell fixation, the cells were incubated with our custom FISH probes. […] That may be because during FISH labeling, the fluorescent probe is hybridized after the RNA of interest is localized to granules. […]

[3] = test system: cellular RNA extracted from HeLa cells; test: Determination of MGD2 selectivity in cellular RNA (agarose gel); type: biochemical; conditions: 10 min UV
Description: To determine the selectivity of MGD2 labeling, 6MGA-mGFP (200 ng) was spiked in into cellular RNA extracted from HeLa cells (400 ng) in 1×PBS. […] After 10 min of UV irradiation, the sample was mixed with equal volume of 50% glycerol solution and heated to 70° C. to denature the RNA. This sample was loaded on to 1% agarose gel containing 1% v/v Clorox® bleach2 and Sybr Gold™. After running the gel for 1 h at a constant 100 V, the gel was frozen with dry ice for 10 min and imaged using GE Amersham Typhoon™. This freezing step enhanced the fluorescence output of the malachite green molecule.
Experiments were performed to determine whether this would create problematic background signal during imaging. […] The collective observations from these experiments served as guidelines for irradiation time and dye concentrations used in subsequent cellular labeling experiments.

[4] = test system: control mGFP mRNA that does not contain the aptamer sequence; test: Effect of UV-irradiation on fluorescence of MGD2 with control mRNA; type: binding; conditions: up to 15 minutes of UV-irradiation
Description: (§1) The effect of UV-irradiation on the fluorescence enhancement was investigated.
(§2) A solution of 30 μM of MGD2 was mixed with 4 μM of the corresponding mRNA in 1×PBS (1.54 mM potassium monobasic, 155.17 mM sodium chloride, and 2.71 mM sodium phosphate dibasic with pH=7.2) and incubated at room temperature for 20 min. For comparison, a solution of MGD2 without any RNA was also prepared in 1×PBS. The fluorescence of these solutions was measured using a BioTek Cytation™ 5 plate reader with ex=620±20 nm and em=680±20 nm. The average fluorescence value from replicate experiments was used to calculate fluorescence enhancement.

[5] = Fluorescence of MGD2 without any RNA in 1×PBS; type: physicochemical; conditions: MGD2 without RNA in 1×PBS; 30 μM MGD2; ex=620±20 nm, em=680±20 nm
Description: as §2

[6] = test system: 1×MGA-mGFP; test: In vitro fluorescence enhancement of MGD2 with 1×MGA-mGFP mRNA; type: binding
Description: (§3) AcGFP mRNA appended with one or six copies of the aptamer sequence at the 5′ end, referred to as 1×MGA-mGFP and 6×MGA-mGFP, respectively, was transcribed.
as §1, §2

[7] = test system: 6×MGA-mGFP; test: In vitro fluorescence enhancement of MGD2 with 6×MGA-mGFP mRNA; type: binding
Description: as §3, §2

[8] = 6MGA-mGFP 200 ng in 400 ng HeLa RNA, MGD2 50 μM
[9] = 1×MGA-mGFP in the presence of MGD2
[10] = 6×MGA-mGFP in the presence of MGD2

OCCCCCCO [1,6-hexanediol]
effect on RNA granules ([1]; 5% 1,6-hexanediol, labeled 1×MGA-mCDK6): most of the RNA granules exhibited a more sustained structural integrity | incubation time after which signal from the protein granules disappeared ([1]; 5% hexanediol, after arsenite-induced stress granule formation): 7 min

CN(C)c1ccc(C(=C2C=CC(=[N+](C)C)C=C2)c2ccc(NC(=O)CCC3(C)N=N3)cc2)cc1 [MGD2, N-(4-((4-(dimethylamino)phenyl)(4-(3-(3-methyl-3H-diazirin-3-yl) Propan amido)phenyl)methylene)cyclohexa-2,5-dien-1-ylidene)-N-methylmethanaminium Chloride]
difference in fluorescence intensity of cytoplasmic mRNA granules, 1×MGA versus 6×MGA ([2]; 1×MGA reduced versus 6×MGA-functionalized mRNA): ~2 fold | sensitivity of RNA detection compared with FISH ([2]; 1×MGA- and 6×MGA-functionalized mRNAs, FISH probes complementary to CDK6): higher sensitivity for RNA detection than FISH | labeling in control cells ([2]; cells transfected with CDK6 lacking the MGA sequence, MGD2 and UV irradiation): did not show any labeling | labeling of aptamer functionalized mRNA spiked into cellular RNA [3, 8]: selectively labeled the aptamer functionalized mRNA | labeling of cellular RNA [3, 8]: did not have any detectable labeling of cellular RNA | labeling of other cellular RNAs (bands in the MG channel) ([3]; MGD2 30 μM with 6×MGA-mGFP in presence of cellular RNA): no bands from labeling of other cellular RNAs | fluorescence enhancement with control mRNA [4]: did not result in any detectable fluorescence enhancement | fluorescence output (mean) [5]: 6.25 | emission maximum [6, 9]: 660 nm | excitation maximum [6, 9]: 625 nm | fluorescence enhancement after UV irradiation ([6]; 1×MGA-mGFP, after 15 minutes of UV irradiation (stabilized)): approximately 140 fold | fluorescence enhancement ([6]; MGD2 bound to 1×MGA-mGFP, prior to UV-irradiation): 251 fold | emission maximum [7, 10]: 660 nm | excitation maximum [7, 10]: 625 nm | fluorescence enhancement ([7]; MGD2 bound to 6×MGA-mGFP, prior to UV-irradiation): > 1000 fold
